In general, IC50 refers to the midpoint of a concentration-inhibition curve. Lower therefore signals inhibition by little substance.

The target of one assay is T1, full-length LRRK2 G2019S (Homo sapiens, UniProt Q5S007, G2019S).
T1 construct: DYKDDDDK (FLAG)
Briefly: LRRK2-G2019S kinase activity assay (Lanthascreen TR-FRET). The assay is classed as biochemical. As to conditions: 1.1 mM ATP.

Assay [1] deals with T2, full-length LRRK2 wild type (Homo sapiens, UniProt Q5S007).
T2 construct: DYDDDDK tagged full-length LRRK2 wild type is used
Briefly: LRRK2 WT assay (Assay A, Lanthascreen TR-FRET, 500 uM ATP). The assay is classed as biochemical. As to conditions: Assay A (values without *).

T1 sequence (Q5S007 whole entry G2019S): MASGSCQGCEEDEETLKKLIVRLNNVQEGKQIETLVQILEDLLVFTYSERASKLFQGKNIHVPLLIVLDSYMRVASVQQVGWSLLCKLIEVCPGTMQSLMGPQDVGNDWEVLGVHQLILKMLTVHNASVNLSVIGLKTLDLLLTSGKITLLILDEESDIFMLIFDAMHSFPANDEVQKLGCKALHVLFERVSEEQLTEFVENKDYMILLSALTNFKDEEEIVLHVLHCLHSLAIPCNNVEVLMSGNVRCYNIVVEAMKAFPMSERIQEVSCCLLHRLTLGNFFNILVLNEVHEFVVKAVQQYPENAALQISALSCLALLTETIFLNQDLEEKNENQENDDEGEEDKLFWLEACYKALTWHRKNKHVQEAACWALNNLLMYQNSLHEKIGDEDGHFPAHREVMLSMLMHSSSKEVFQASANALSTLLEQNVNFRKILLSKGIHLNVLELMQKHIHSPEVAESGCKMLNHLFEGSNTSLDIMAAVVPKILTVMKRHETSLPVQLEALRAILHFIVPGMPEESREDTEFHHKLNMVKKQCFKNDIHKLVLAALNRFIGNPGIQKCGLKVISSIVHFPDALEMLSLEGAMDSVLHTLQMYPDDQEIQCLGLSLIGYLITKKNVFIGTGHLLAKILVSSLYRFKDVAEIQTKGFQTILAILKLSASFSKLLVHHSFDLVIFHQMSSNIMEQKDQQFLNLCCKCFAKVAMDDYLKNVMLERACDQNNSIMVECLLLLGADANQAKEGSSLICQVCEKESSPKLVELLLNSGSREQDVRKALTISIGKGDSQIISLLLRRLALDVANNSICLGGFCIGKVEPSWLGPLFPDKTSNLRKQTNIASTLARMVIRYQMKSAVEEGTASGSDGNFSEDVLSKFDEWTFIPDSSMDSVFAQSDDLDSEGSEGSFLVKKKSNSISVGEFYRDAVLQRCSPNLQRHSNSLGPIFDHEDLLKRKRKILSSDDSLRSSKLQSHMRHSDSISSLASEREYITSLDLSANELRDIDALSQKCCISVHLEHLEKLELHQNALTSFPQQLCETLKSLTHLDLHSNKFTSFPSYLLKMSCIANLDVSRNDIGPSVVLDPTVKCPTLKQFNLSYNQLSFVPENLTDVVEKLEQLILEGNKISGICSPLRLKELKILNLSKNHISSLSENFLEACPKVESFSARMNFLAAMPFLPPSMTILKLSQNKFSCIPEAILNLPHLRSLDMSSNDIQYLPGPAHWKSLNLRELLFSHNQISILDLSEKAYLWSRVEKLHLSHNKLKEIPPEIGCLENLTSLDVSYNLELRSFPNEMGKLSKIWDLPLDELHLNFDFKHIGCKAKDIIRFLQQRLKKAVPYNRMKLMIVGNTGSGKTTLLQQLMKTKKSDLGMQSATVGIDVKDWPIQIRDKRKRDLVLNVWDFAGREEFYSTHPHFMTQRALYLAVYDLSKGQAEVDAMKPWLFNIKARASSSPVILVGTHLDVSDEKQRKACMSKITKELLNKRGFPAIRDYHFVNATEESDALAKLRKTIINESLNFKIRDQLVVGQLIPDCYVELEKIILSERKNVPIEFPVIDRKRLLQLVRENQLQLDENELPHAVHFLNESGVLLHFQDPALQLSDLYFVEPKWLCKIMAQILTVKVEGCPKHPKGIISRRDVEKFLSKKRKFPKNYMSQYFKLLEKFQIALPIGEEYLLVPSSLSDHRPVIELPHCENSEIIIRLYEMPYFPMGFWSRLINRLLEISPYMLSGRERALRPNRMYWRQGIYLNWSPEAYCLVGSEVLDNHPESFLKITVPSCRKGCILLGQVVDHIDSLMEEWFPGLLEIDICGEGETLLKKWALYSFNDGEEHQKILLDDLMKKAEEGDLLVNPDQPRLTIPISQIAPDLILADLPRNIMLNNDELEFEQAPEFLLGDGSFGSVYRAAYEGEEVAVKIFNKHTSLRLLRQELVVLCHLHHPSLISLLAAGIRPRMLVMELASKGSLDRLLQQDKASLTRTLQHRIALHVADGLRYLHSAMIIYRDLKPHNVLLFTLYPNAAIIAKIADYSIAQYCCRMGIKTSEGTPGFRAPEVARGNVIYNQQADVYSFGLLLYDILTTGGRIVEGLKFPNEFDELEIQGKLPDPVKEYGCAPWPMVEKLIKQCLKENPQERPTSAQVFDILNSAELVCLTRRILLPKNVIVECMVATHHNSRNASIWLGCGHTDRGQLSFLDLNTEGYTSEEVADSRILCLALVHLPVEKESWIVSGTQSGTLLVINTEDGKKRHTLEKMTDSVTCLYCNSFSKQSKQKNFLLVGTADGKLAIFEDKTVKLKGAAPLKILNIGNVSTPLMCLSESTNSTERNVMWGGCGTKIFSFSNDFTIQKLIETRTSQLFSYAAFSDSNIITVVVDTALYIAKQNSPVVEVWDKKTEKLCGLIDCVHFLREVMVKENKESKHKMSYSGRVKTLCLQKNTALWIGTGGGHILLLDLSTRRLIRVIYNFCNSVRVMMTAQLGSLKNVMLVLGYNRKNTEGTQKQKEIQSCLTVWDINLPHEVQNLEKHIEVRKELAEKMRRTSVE
T2 sequence (Q5S007 whole entry): as the sequence (Q5S007 whole entry G2019S) above, with S2019G counted along it

As to `C[C@H]1COC[C@@H]1n1c(C#N)cc2cnc(Nc3ccc(CN(C)C)cc3OC3CC3)nc21` [Example 41, 2-((2-Cyclopropoxy-4-((dimethylamino)methyl)phenyl)amino)-7-((3R,4R)-4-methyltetrahydrofuran-3-yl)-7H-pyrrolo[2,3-d]pyrimidine-6-carbonitrile], the IC50 came to 3 nM on full-length LRRK2 G2019S and 4 nM in assay [1].

With `[2H]C([2H])([2H])n1cc(Nc2ncc3cc(C#N)n([C@H]4COC[C@@H]4C)c3n2)c(OC(C)C)n1` [Example 42, 2-((3-Isopropoxy-1-(methyl-d3)-1H-pyrazol-4-yl)amino)-7-((3R,4R)-4-methyltetrahydrofuran-3-yl)-7H-pyrrolo[2,3-d]pyrimidine-6-carbonitrile], the IC50 is 2 nM on full-length LRRK2 G2019S and 1 nM in assay [1].

For the compound `C[C@@H]1COC[C@H]1n1c(C#N)cc2cnc(Nc3cn(C)nc3OC3COC3)nc21` [Example 44, 2-((1-Methyl-3-(oxetan-3-yloxy)-1 H-pyrazol-4-yl)amino)-7-((3S,4S)-4-methyltetrahydrofuran-3-yl)-7H-pyrrolo[2,3-d]pyrimidine-6-carbonitrile], the figures for the IC50 (at full-length LRRK2 G2019S; in assay [1]) were 191 nM and 196 nM, respectively.

Take `CO[C@H]1COC[C@H]1n1c(C#N)cc2cnc(Nc3ccc(C(C)(C)O)cc3OC3COC3)nc21` [Example 55, 2-((4-(2-Hydroxypropan-2-yl)-2-(oxetan-3-yloxy)phenyl)amino)-7-((3R,4R)-4-methoxytetrahydrofuran-3-yl)-7H-pyrrolo[2,3-d]pyrimidine-6-carbonitrile]: the IC50 against full-length LRRK2 G2019S was 18 nM; in assay [1], 41 nM.

As to `CC(C)Oc1nn(C(C)(C)C#N)cc1Nc1ncc2cc(C#N)n(C3COC3)c2n1` [Example 74, 2-((1-(2-Cyanopropan-2-yl)-3-isopropoxy-1H-pyrazol-4-yl)amino)-7-(oxetan-3-yl)-7H-pyrrolo[2,3-d]pyrimidine-6-carbonitrile], the IC50 at full-length LRRK2 G2019S is 14 nM; in assay [1], 20 nM.

In the case of `[2H]C([2H])([2H])n1cc(Nc2ncc3cc(C#N)n([C@@H](C)COC)c3n2)c(OC2COC2)n1` [Example 91, 7-[(2S)-1-Methoxypropan-2-yl]-2-[[3-(oxetan-3-yloxy)-1-(methyl-d3)pyrazol-4-yl]amino]pyrrolo[2,3-d]pyrimidine-6-carbonitrile], the IC50 on full-length LRRK2 G2019S came out at 7 nM; in assay [1], 13 nM.

For `COC[C@H](C)n1c(C#N)cc2cnc(Nc3cn(COC)nc3OC3CC3)nc21` [Example 92, 2-[[3-(Cyclopropoxy)-1-(methoxymethyl)pyrazol-4-yl]amino]-7-[(1S)-2-methoxy-1-methyl-ethyl]pyrrolo[2,3-d]pyrimidine-6-carbonitrile], the IC50 at full-length LRRK2 G2019S was 4 nM; in assay [1], 6 nM.

For the compound `COC[C@H](C)n1c(C#N)cc2cnc(Nc3cn(CS(C)(=O)=O)nc3OC3COC3)nc21` [Example 93, 7-[(1S)-2-Methoxy-1-methyl-ethyl]-2-[[1-(methylsulfonylmethyl)-3-(oxetan-3-yloxy)pyrazol-4-yl]amino]pyrrolo[2,3-d]pyrimidine-6-carbonitrile], the IC50 against full-length LRRK2 G2019S came out at 4 nM; in assay [1] it was 8 nM.

On to `COCCn1cc(Nc2ncc3cc(C#N)n([C@@H](C)COC)c3n2)c(OC2CC2)n1` [Example 103, (S)-2-((3-cyclopropoxy-1-(2-methoxyethyl)-1H-pyrazol-4-yl)amino)-7-(1-methoxypropan-2-yl)-7H-pyrrolo[2,3-d]pyrimidine-6-carbonitrile], for which the IC50 amounted to 31 nM against full-length LRRK2 G2019S and 35 nM in assay [1].

As to `COCC(C)n1c(C#N)cc2cnc(Nc3cn(C4CCC(C)(O)CC4)nc3OC(C)C)nc21` [Example 104, cis-2-((1-(4-hydroxy-4-methylcyclohexyl)-3-isopropoxy-1H-pyrazol-4-yl)amino)-7-((S)-1-methoxypropan-2-yl)-7H-pyrrolo[2,3-d]pyrimidine-6-carbonitrile], the figures for the IC50 (against full-length LRRK2 G2019S; in assay [1]) were 42 nM and 44 nM, respectively.
